A short description of data set [1]: Relative solubility in non-halogenated solvents, evaluated by visual observation. The settings on record: concentration 30 mg/mL. It counts as physicochemical. On the procedure: Each of the compounds is added into the test tubes containing five organic solvents at a concentration of 30 mg/mL.
Data set [2] can be described thus: Electrochemical properties (onset oxidation/reduction potentials, HOMO, LUMO, gap). It is filed as physicochemical. More on the design: Eox / Ered: unit not given here. Conditions: for HOMO: HOMO = −e(Eox + 4.32); for Eg: HOMO-LUMO gap; for LUMO: LUMO = −e(Ered + 4.32); for Eox: onset oxidation potential; for Ered: onset reduction potential. The source says: The energy difference between HOMO and LUMO is also illustrated in FIG. 4. […] The compounds of formulae 1b-d have similar energy difference between HOMO and LUMO, meaning their potential energy levels are similar. Among the compounds of formulae 1a-d, it appears that the compound of formula 1a has the best potential energy suitable for being applied in organic photovoltaics; the compound of formula 1c is the second best.

With `Cc1cccc(C)c1C(=O)OC12c3c4c5c6c7c8c(c9c%10c1c1c%11c3c3c%12c4c4c6c6c7c7c%13c8c9c8c9c%10c1c1c%10c%11c3c3c%11c%12c4c4c6c6c7c7c%13c8c8c9c1c1c%10c3c3c%11c4c6c4c7c8c1c34)C52O[Si](C)(C)C(C)(C)C` (stereo not drawn) [Formula 1d], in data set [1], the “Relative solubility in diethyl ether” value was “Insoluble”, the “Relative solubility in ethanol” value is “Insoluble” and the “Relative solubility in ethyl acetate” value is “Insoluble”. For the same compound, in data set [1] (THF), the “Relative solubility in tetrahydrofuran (THF)” value is “Insoluble”. Also, in data set [2], the HOMO was −6.06 eV, the Eg is reported as 2.22 eV, the LUMO is −3.84 eV and the Eox amounted to 1.74. The Ered in data set [2] is −0.48.
Take `CCCC[Si](C)(C)OC12c3c4c5c6c7c8c(c9c%10c1c1c%11c3c3c%12c4c4c6c6c7c7c%13c8c9c8c9c%10c1c1c%10c%11c3c3c%11c%12c4c4c6c6c7c7c%13c8c8c9c1c1c%10c3c3c%11c4c6c4c7c8c1c34)C52OC(=O)c1c(C)cccc1C` (stereo not drawn) [Formula 1c]: in data set [1], the “Relative solubility in diethyl ether” value is recorded as “Insoluble”, the “Relative solubility in ethanol” value was “Insoluble”, the “Relative solubility in ethyl acetate” value is given as “Insoluble” and the “Relative solubility in toluene” value is recorded as “Soluble”. In data set [2], the HOMO is reported as −6.12 eV, the Eg was 2.29 eV, the LUMO is given as −3.83 eV and the Eox worked out at 1.80. For the same compound, the Ered in data set [2] is listed as −0.49.
For `Cc1cccc(C)c1C(=O)OC12c3c4c5c6c7c8c(c9c%10c1c1c%11c3c3c%12c4c4c6c6c7c7c%13c8c9c8c9c%10c1c1c%10c%11c3c3c%11c%12c4c4c6c6c7c7c%13c8c8c9c1c1c%10c3c3c%11c4c6c4c7c8c1c34)C52O[Si](C)(C)c1ccccc1` (stereo not drawn) [Formula 1a], in data set [1], the “Relative solubility in diethyl ether” value was “Insoluble” and the “Relative solubility in toluene” value is recorded as “Soluble”. In data set [2], the HOMO was −6.08 eV, the Eg is reported as 2.41 eV, the LUMO was −3.67 eV and the Eox was found to be 1.76. In data set [2], the Ered was −0.65.
Turning to `Cc1cccc(C)c1C(=O)OC12c3c4c5c6c7c8c(c9c%10c1c1c%11c3c3c%12c4c4c6c6c7c7c%13c8c9c8c9c%10c1c1c%10c%11c3c3c%11c%12c4c4c6c6c7c7c%13c8c8c9c1c1c%10c3c3c%11c4c6c4c7c8c1c34)C52OC[Si](C)(C)c1ccccc1` (stereo not drawn) [Formula 1b], in data set [1], the “Relative solubility in diethyl ether” value was “Insoluble”, the “Relative solubility in ethanol” value is “Insoluble” and the “Relative solubility in ethyl acetate” value is on record as “Insoluble”. Besides, in data set [2], the HOMO was −6.03 eV, the Eg was 2.25 eV, the LUMO is reported as −3.78 eV and the Eox is on record as 1.71. In data set [2], the Ered is recorded as −0.54.

The values are drawn from patent US20160039676A1, “Fullerene Derivatives and Their Applications in Organic Photovoltaics” (Nano and Advanced Materials Institute Limited, priority 2014, published 2016).
